Measured values from patent US6875748B2, “Compositions and methods for in vivo delivery of polynucleotide-based therapeutics” (Vical Incorporated, priority 2000, dated 2005).
Where “and” joins values, the source holds several entries; their conditions need not be identical. Equal entries are not always repeated. Where two headings read alike, the source gives them in different places.

Columns and labels:
mouse quadriceps muscle [1] = test: Luciferase expression in mouse quadriceps muscle 7 days after i.m. injection of plasmid VR1223 in salt solutions; format: in vivo; design: lux: unit: ng/muscle; settings: for ng Lux per Muscle: 50 μg VR1223 in 50 μl of the solution; for ng Lux per Muscle / ng luciferase per muscle / Fold Saline / ng Lux/Muscle / luciferase in muscle: day 7; for ng luciferase per muscle / ng Lux/Muscle: 50 μg VR1223 in 50 μl; for luciferase in muscle: Example 4, run in parallel; for lux: 7-day luciferase expression, VR1223; for ng luciferase/muscle: average of all 9 experiments; for ng lux/muscle: reproducibility
mouse lung = test: Luciferase expression in mouse lung 3 days after intranasal instillation of VR1223 complexed with GAP-DLRIE/DOPE; format: in vivo; settings: day 3; for luciferase expression in lung: 132 μg VR1223 + GAP-DLRIE/DOPE
pH of the salt solutions = format: physicochemical
[2] = Osmolarity of the salt solutions; format: physicochemical; settings: for Osm: 150 mM unless otherwise indicated
mouse quadriceps muscle [3] = test: Serum human IFN-ω after i.m. injection of plasmid VR4151; format: in vivo; settings: for serum IFN-ω levels: 50 μg VR4151, day 7
Description: (§1) Muscle extracts were assayed for β-galactosidase and the serum was assayed for circulating levels of IFN-ω.

mouse quadriceps muscle [4] = test: β-galactosidase-stained muscle fibers after i.m. injection of plasmid VR1412; format: in vivo; settings: 50 μg VR1412, day 7, n=10
Description: For whole muscle staining, quadriceps were fixed for 3 hours at room temperature in 2% paraformaldehyde in PBS, washed 3 times for 20 min each in PBS and incubated for 18 hours at 37° C. in a solution containing 2 mM MgCl2, 5 mM potassium ferricferrocyanide and 1 mg/ml 5-bromo-4-chloro-3-indoyl-β-D-galactosidase (available from Life Technologies, Inc. (LTI), Gaithersberg, Md.) in PBS. After incubation, the muscles were washed 3 times for 10 min each in 3% dimethyl sulfoxide in PBS and stored in PBS at 4° C. until analysis. […] Sections were collected on 1% gelatin coated glass slides, brought to room temperature and stained for 2 hours at 37° C. in the same reagent as for whole mounts above except that the beta-galactosidase reagent concentration was 200 μg/ml. The sections were then counterstained with Harris hematoxylin in acetic acid, rinsed in tap water, dehydrated and mounted in Permount (Fisher, Fair Lawn, N.J.).
Individual muscle cells were examined for β-galactosidase expression as follows.
Whole quadriceps muscle groups were harvested on day 7. Muscles were snap frozen in OTC medium (n=10 muscles for each group). 10 micron cross-sections were stained with x-gal (substrate for β-gal). Fibers expressing β-gal (stained blue) were counted.

B16F10 tumor cells = test: Anti-tumor effect of i.m. mIFN-α plasmid VR4111 in mice bearing subcutaneous B16F10 tumors; format: in vivo, mouse; settings: for tumor volume: 27 days, VR4111; for survival versus blank DNA in saline: p<0.007, Kaplan-Meier
mouse quadriceps muscle [5] = test: β-galactosidase expression in mouse quadriceps muscle after i.m. injection of plasmid VR1418; settings: for β-galactosidase in muscle: 10 μg VR1418, day 7
Description: The luciferase content of the samples was calculated from Relative Light Units using a standard curve of purified firefly luciferase (Analytical Luminescence Laboratory, San Diego, Calif.; Cat. No. 2400), which was diluted in pooled extract from uninjected muscles to control for quenching. Luciferase values were expressed as ng luciferase per muscle. […] A standard curve, prepared in pooled extract from uninjected muscles, was included on each plate using the β-galactosidase enzyme standard included in the kit.
as §1
Quadriceps muscles were injected with 50 μl of each solution containing 10 μg of plasmid VR1418, and the muscles were tested for 7-day expression levels.

mouse quadriceps muscle [6] = test: Hematocrit after i.m. injection of mouse erythropoietin plasmid (VR2901, VR2996); format: in vivo
Description: Hematocrits were measured by centrifugation of blood obtained from the retro-orbital cavity of mice. Blood samples were collected in 75 μl heparinized capillary tubes and analyzed using HemaSTAT II microhematocrit centrifuge (Separation Technology, Inc., Altamonte Springs, Fla.).
The mice were monitored over time for serum hematocrit levels, which correlate with the expression of erythropoeitin.
The mice were monitored over four weeks for serum hematocrit levels, which correlate with the expression of erythropoeitin.
The mice were monitored at days 0, 7, 14, 21, and 28 for serum hematocrit levels, which correlate with the expression of erythropoeitin.
The mice were monitored at days 7, 14, and 28 for serum hematocrit levels, which correlate with the expression of erythropoeitin. Control serum levels were measured before any injections.

influenza nucleoprotein [7] = settings: 5 μg VR4700 days 0 and 21, 6 weeks
influenza nucleoprotein [8] = settings: 9 weeks post-vaccination, versus saline
rectus femoris muscle = settings: for cats with elevated hematocrit: no agent
Excerpt: Two milliliters of DNA were delivered as 1-ml injections into each rectus femoris muscle. Following injection, cats were monitored at 7 day intervals for serum hematocrit levels, which correlate with the expression of erythropoeitin.

mouse quadriceps muscle [9] = test: Luciferase expression in mouse quadriceps muscle after i.m. injection of plasmid VR1255 with auxiliary agents; settings: day 7; for increase of luciferase expression in 154 mM sodium chloride: 0.01% agent in saline versus saline alone
[10] = system: tibialis anterior muscles of nude mice; test: Serum SEAP after injection of plasmid VR3301 into tibialis anterior muscles of nude mice; format: in vivo, mouse
Description: Briefly, tissues were rapidly collected and frozen, they were combined with and frozen into a lysis buffer, the tissue was then pulverized with a drill bit run in reverse direction, the resulting powder was thawed, and was extracted two times with extraction buffer. Nude mice were injected with VR3301 DNA bilaterally on three consecutive days for a total of 300 μg DNA per mouse.
Sera from nude mice injected with VR3301 were collected at various times post-injection. […] Samples were assayed in duplicate. Plates were sealed, incubated at 65° C. for 30 min and spun for 5 min at 4000 rpm at room temperature. […] The samples were analyzed using a Molecular Devices Opti Max plate reader (Sunnyvale, Calif.). The plate reader was pre-warmed to 37° C. and a standard kinetic program was used to assay the samples at a wavelength of 405 nm for 30 min.
The mice were monitored over time for blood levels of SEAP or proinsulin or for hematocrits. In the case of SEAP, plasmid DNA was injected into the tibialis anterior muscles, and nude mice were used to prevent an immune response to the foreign transgene product.
The mice were monitored for blood levels of SEAP at day 7 post-injection. Plasmid DNA was injected into the tibialis anterior muscles, and nude mice were used to prevent an immune response to the foreign transgene product.

[11] = salts at 150 mM, relative to saline
[12] = 150 mM unless otherwise indicated
[13] = listed as 150 mM sodium phosphate
[14] = 150 mM solutions, VR1223, day 7

O [Double-distilled water, reference compound]
ng Lux per Muscle (mouse quadriceps muscle [1]): 4 ng per Muscle
ng luciferase per muscle (mouse quadriceps muscle [1]): 4 ng luciferase per muscle
luciferase expression, times lower than saline (mouse quadriceps muscle [1]; VR1223, day 7): 25 times
Fold Saline (mouse quadriceps muscle [1]; luciferase expression relative to saline): 0.03 Fold
luciferase expression in lung (mouse lung): 0.94 ng lux/lung

[Cl-].[Na+] [Sodium Chloride, reference compound]
ng Lux per Muscle (mouse quadriceps muscle [1]; listed as 100 mM Sodium Chloride): 112 ng per Muscle
ng Lux per Muscle (mouse quadriceps muscle [1]; listed as 150 mM Sodium Chloride (saline)): 119 ng per Muscle
ng luciferase per muscle (mouse quadriceps muscle [1]; listed as 100 mM NaCl): 112 ng luciferase per muscle
ng luciferase per muscle (mouse quadriceps muscle [1]; listed as saline): 119 ng luciferase per muscle and 89 ng luciferase per muscle
ng Lux/Muscle (mouse quadriceps muscle [1]; salts at 150 mM): 119 ng/Muscle
luciferase in muscle (mouse quadriceps muscle [1]): 159 ng/muscle
lux (mouse quadriceps muscle [1]; Table III-A): 119
lux (mouse quadriceps muscle [1]; Table III-A, listed as 100 mM NaCl): 112
lux (mouse quadriceps muscle [1]; Table III-A, listed as 150 mM NaCl (Saline)): 119
lux (mouse quadriceps muscle [1]; Table III-B, listed as 100 mM NaCl): 112
lux (mouse quadriceps muscle [1]; Table III-B, listed as 150 mM NaCl (Saline)): 119
ng luciferase/muscle (mouse quadriceps muscle [1]): 120 ng luciferase/muscle
Fold Saline (mouse quadriceps muscle [1]; luciferase expression relative to saline, listed as 100 mM Sodium Chloride): 0.9 Fold
Fold Saline (mouse quadriceps muscle [1]; luciferase expression relative to saline, listed as 150 mM Sodium Chloride (saline)): 1.0 Fold
ng lux/muscle (mouse quadriceps muscle [1]; Exp. #1): 49 ng lux/muscle
ng lux/muscle (mouse quadriceps muscle [1]; Exp. #9): 156 ng lux/muscle
Fold Saline (mouse quadriceps muscle [1]; [11]): 1.0 Fold
pH (pH of the salt solutions): 5.5
pH (pH of the salt solutions; [12]): 5.5
Osm ([2]; listed as 100 mM NaCl): 215 mmol/kg
Osm ([2]; listed as 150 mM NaCl (Saline)): 310 mmol/kg
osmolarity ([2]; listed as saline): 310 mmol/kg and 308 mmol/kg
serum IFN-ω levels (mouse quadriceps muscle [3]): 0.14 ng ml serum
β-galactosidase-positive myofiber cells (mouse quadriceps muscle [4]): 108+/−21 myofiber cells/muscle section
luciferase expression in lung (mouse lung): 0.14 ng lux/lung
tumor volume (B16F10 tumor cells): 2069 mm^3
survival versus blank DNA in saline (B16F10 tumor cells): statistically significant survival difference
mice surviving (B16F10 tumor cells; to day 38, VR4111): 2 out of 10
β-galactosidase in muscle (mouse quadriceps muscle [5]): 3.0 ng/muscle

O=P(O)(O)O [Sodium Phosphate]
ng luciferase per muscle (mouse quadriceps muscle [1]): 386 ng luciferase per muscle
ng Lux/Muscle (mouse quadriceps muscle [1]; salts at 150 mM): 481 ng/Muscle
luciferase expression compared with saline (words) (mouse quadriceps muscle [1]; 80 mM, 100 mM, 150 mM and 200 mM sodium phosphate, p<0.05): significantly higher than saline
luciferase in muscle, fold over saline (mouse quadriceps muscle [1]; Example 4, day 7): 4.8 fold
luciferase in muscle (mouse quadriceps muscle [1]): 769 ng/muscle
enhancement over saline (mouse quadriceps muscle [1]; Exp. #1 (highest)): 7.3 fold
enhancement over saline (mouse quadriceps muscle [1]; Exp. #9 (lowest)): 2.5 fold
lux (mouse quadriceps muscle [1]; Table III-A): 481
lux (mouse quadriceps muscle [1]; Table III-A, listed as 50 mM Sodium Phosphate): 254
lux (mouse quadriceps muscle [1]; Table III-A, listed as 100 mM Sodium Phosphate): 270
lux (mouse quadriceps muscle [1]; Table III-A, listed as 150 mM Sodium Phosphate): 481
lux (mouse quadriceps muscle [1]; Table III-B, listed as 50 mM Sodium Phosphate): 254
lux (mouse quadriceps muscle [1]; Table III-B, listed as 100 mM Sodium Phosphate): 270
lux (mouse quadriceps muscle [1]; Table III-B, listed as 150 mM Sodium Phosphate): 481
luciferase expression, fold over saline (mouse quadriceps muscle [1]; VR1223, day 7, listed as 50 mM sodium phosphate): 2.1 fold
luciferase expression, fold over saline (mouse quadriceps muscle [1]; VR1223, day 7, listed as 100 mM sodium phosphate): 2.3 fold
luciferase expression, fold over saline (mouse quadriceps muscle [1]; VR1223, day 7, listed as 150 mM sodium phosphate): 4.3 fold and 4 fold
average enhancement over saline (mouse quadriceps muscle [1]; all 9 experiments): 4.1 fold
ng luciferase/muscle (mouse quadriceps muscle [1]): 490 ng luciferase/muscle
ng lux/muscle (mouse quadriceps muscle [1]; Exp. #1): 362 ng lux/muscle
ng lux/muscle (mouse quadriceps muscle [1]; Exp. #9): 384 ng lux/muscle
Fold Saline (mouse quadriceps muscle [1]; [11]): 4.0 Fold
luciferase expression compared with saline (words) (mouse quadriceps muscle [1]; sodium phosphate below 40 mM or above 300 mM): equal to or lower than those seen with saline
pH (pH of the salt solutions; [12]): 7.2
pH (pH of the salt solutions; 150 mM unless otherwise indicated, listed as 50 mM Sodium Phosphate): 7.2
pH (pH of the salt solutions; 150 mM unless otherwise indicated, listed as 100 mM Sodium Phosphate): 7.2
pH (pH of the salt solutions; 150 mM unless otherwise indicated, listed as 150 mM Sodium Phosphate): 7.2
Osm ([2]; listed as 50 mM Sodium Phosphate): 83 mmol/kg
Osm ([2]; listed as 100 mM Sodium Phosphate): 232 mmol/kg
Osm ([2]; listed as 150 mM Sodium Phosphate): 308 mmol/kg
osmolarity ([2]; listed as 50 mM sodium phosphate): 83 mmol/kg
osmolarity ([2]; listed as 100 mM sodium phosphate): 270 mmol/kg
osmolarity [2, 13]: 310 mmol/kg
serum IFN-ω levels (mouse quadriceps muscle [3]): 0.35 ng ml serum
serum IFN-ω levels, fold over saline (mouse quadriceps muscle [3]; day 7): 2.5 fold
hematocrit versus plasmid DNA in saline (mouse quadriceps muscle [6]; 10 μg or 2.5 μg VR2901, four weeks): higher hematocrit levels
β-galactosidase-positive myofiber cells (mouse quadriceps muscle [4]): 186+/−43 myofiber cells/muscle section
luciferase expression in lung (mouse lung; listed as 2.5 mM sodium phosphate): 5.2 ng lux/lung
luciferase expression in lung (mouse lung; [13]): 0.22 ng lux/lung
luciferase expression in lung compared with water (mouse lung): enhanced compared with water, but not as much as with 2.5 mM sodium phosphate
luciferase expression in lung, fold compared with water (mouse lung): 5.5 fold
tumor volume (B16F10 tumor cells): 955 mm^3
tumor growth versus blank DNA controls (B16F10 tumor cells; VR4111 100 μg i.m., up to 22 days): lower rate of tumor growth
survival versus blank DNA in saline (B16F10 tumor cells): statistically significant survival difference
mice surviving (B16F10 tumor cells; to day 41, VR4111): 4 out of 10
serum anti-NP antibody titers (influenza nucleoprotein [7]): enhanced serum anti-NP antibody titers compared with saline solution
anti-NP specific CTL activity (influenza nucleoprotein [8]): statistically similar
mice with anti-β-galactosidase antibody (β-galactosidase; 10 μg VR1412, four weeks): none of the mice
mice with anti-β-galactosidase antibody (β-galactosidase; 10 μg VR1412, two weeks): none of the mice
cats with elevated hematocrit (rectus femoris muscle; group 3, 1 mg/ml DNA): one cat
cats with elevated hematocrit (rectus femoris muscle; groups 1 and 2, 5 and 3 mg/ml DNA): No cats
β-galactosidase in muscle (mouse quadriceps muscle [5]): 9.8 ng/muscle
optimal molar concentration for β-galactosidase expression (mouse quadriceps muscle [5]; 10 μg VR1418, day 7, data not shown): 150 mM
β-galactosidase in muscle, fold over saline (mouse quadriceps muscle [5]; day 7): 3.3 fold
Average μg luciferase muscle (mouse quadriceps muscle [9]; 50 μg VR1255 in 50 μl 150 mM sodium phosphate with added agents): 0.37 µg

[Cl-].[Cl-].[Zn+2] [Zinc Chloride]
ng Lux/Muscle (mouse quadriceps muscle [1]; salts at 150 mM): 0.1 ng/Muscle
luciferase expression compared with saline (words) (mouse quadriceps muscle [1]; [14]): no ability to enhance
lux (mouse quadriceps muscle [1]; Table III-A): 0.1
lux (mouse quadriceps muscle [1]; Table III-B): 0.1
Fold Saline (mouse quadriceps muscle [1]; [11]): <0.1 Fold
pH (pH of the salt solutions; [12]): 5.0
Osm [2]: 358 mmol/kg

Calcium Phosphate
ng Lux/Muscle (mouse quadriceps muscle [1]; salts at 150 mM): 12 ng/Muscle
luciferase expression compared with saline (words) (mouse quadriceps muscle [1]; [14]): no ability to enhance
lux (mouse quadriceps muscle [1]; Table III-A): 12
lux (mouse quadriceps muscle [1]; Table III-B): 12
Fold Saline (mouse quadriceps muscle [1]; [11]): 0.1 Fold
pH (pH of the salt solutions; [12]): 6.0
Osm [2]: 36 mmol/kg

octyl phenol ethylene oxide condensate with about 9-10 ethylene oxide units [Triton X-100]
SEAP expression with 100 μg DNA plus agent versus 300 μg DNA in 150 mM sodium phosphate alone ([10]; day 7): nearly equivalent
SEAP expression, fold compared with sodium phosphate alone ([10]; day 7): 1.7 fold
SEAP expression, fold compared with 150 mM sodium phosphate alone ([10]; day 35): 2 fold
mice with anti-β-galactosidase antibody (β-galactosidase; 10 μg VR1412, four weeks): three of the five
mice with anti-β-galactosidase antibody (β-galactosidase; 10 μg VR1412, ten weeks): four of the five
period of elevated hematocrit (rectus femoris muscle; group 4): > 40 days
increase of luciferase expression in 154 mM sodium chloride (mouse quadriceps muscle [9]): six-fold

octylphenoxypolyethoxyethanol [NONIDET NP-40]
hematocrit versus 150 mM sodium phosphate alone (mouse quadriceps muscle [6]; 5 μg VR2901, 0.01% agent, all time points): higher hematocrit levels
rise in hematocrit (mouse quadriceps muscle [6]; 5 μg VR2901, after day 14): 10%
increase of luciferase expression in 154 mM sodium chloride (mouse quadriceps muscle [9]): three-fold
